Assay results from patent US20250051355A1, “COMPOUNDS, COMPOSITIONS, AND METHODS” (ACONCAGUA BIO, INC., priority 2023, published 2025).

Biological target: human calcitonin receptor (CTR) and RAMP3 (AMY3) (Homo sapiens, UniProt O60896+P30988)
Test: Amylin Receptor cAMP Assay I
Type: cell-based
Details: COS-7/AMY3 cells, cAMP Hi-range Kit, read-out: Amylin Receptor cAMP Stimulation Activity: EC50
Excerpt: Amylin Receptor cAMP Assay I
AMYRs are heterodimers of the class B calcitonin (CT) G-protein-coupled receptor (CTR) and receptor activity-modifying proteins (RAMPs). All three RAMPs can interact with the CTR and form AMY1, AMY2, AMY3 with RAMP1, RAMP2 and RAMP3, respectively. Like other class B1 GPCRs, the CT receptor family is canonically coupled to Gs-mediated cAMP production, and measurement of cAMP accumulation has been the primary assay used to determine peptide selectivity and potency.
To optimize functional activity directed toward Gas coupling, COS-7 cells were stably transfected with human calcitonin receptor (CTR) and RAMP3, simultaneously. 100×concentration of compound working solutions were prepared (Agilent Technologies Bravo) with 4-fold serial dilution in 384-well Echo LDV plate (Labcyte, Cat #LP-0200). 100 nL/well 100× concentration of compound working solutions were moved to 384-well white low volume plate (Greiner, Cat #784075) using Labcyte ECHO550. 1×10^5 cells/mL COS-7/CTR or COS-7/AMY3 (HD Biosciences) cell suspensions prepared with assay buffer [DPBS containing 0.5 mM IBMX (Sigma, Cat #15879) and 0.1% BSA (GENVIEW, Cat #FAO16-100 g)], 10 μL cell suspensions were added to each well of previous generated assay plate which already contains 100 nL compound at 100× concentration using ThermoFisher Multidrop Combi (1000 cells/well). Seal the plate and incubate at 37° C. with 5% CO2 for 30 min.
After incubation, the cAMP assay signal was generated using cAMP Hi-range Kit (Cisbio). 5 μL cAMP-d2 working solution was added to each well, followed by 5 μL Anti-cAMP antibody-cryptate working solution which was added to each well using ThermoFisher Multidrop Combi. The samples were then incubated at room temperature for 1 hour protected from light. the fluorescence was read at 665 and 615 nm with Reader PerkinElmer EnVision.

Chain of human calcitonin receptor (CTR) and RAMP3 (AMY3) (O60896 24-148): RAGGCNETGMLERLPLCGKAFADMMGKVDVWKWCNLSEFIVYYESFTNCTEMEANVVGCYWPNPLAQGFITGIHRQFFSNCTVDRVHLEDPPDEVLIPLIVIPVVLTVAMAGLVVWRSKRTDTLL
Chain of human calcitonin receptor (CTR) and RAMP3 (AMY3) (P30988 25-474): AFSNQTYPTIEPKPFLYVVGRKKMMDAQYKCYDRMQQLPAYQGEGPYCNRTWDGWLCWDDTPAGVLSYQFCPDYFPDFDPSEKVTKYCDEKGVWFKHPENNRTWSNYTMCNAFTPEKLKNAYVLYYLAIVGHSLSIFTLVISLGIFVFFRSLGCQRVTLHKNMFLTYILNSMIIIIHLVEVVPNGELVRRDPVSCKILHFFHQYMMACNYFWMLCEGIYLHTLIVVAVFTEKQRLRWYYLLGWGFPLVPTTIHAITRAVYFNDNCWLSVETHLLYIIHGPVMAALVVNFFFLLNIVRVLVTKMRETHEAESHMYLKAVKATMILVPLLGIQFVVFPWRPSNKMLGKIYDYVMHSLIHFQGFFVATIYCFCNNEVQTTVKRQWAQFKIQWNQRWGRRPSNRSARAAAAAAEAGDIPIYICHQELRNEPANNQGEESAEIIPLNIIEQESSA

| Structure (SMILES) | EC50 [nM] |
| --- | --- |
| Cc1nnc(-c2c(CCC3CCOC(C)(C)C3)nc3c(c2-c2ccc(C(=O)NCc4ccc(F)c(F)c4)s2)C(=O)N2CCC[C@@H]32)o1 (stereo partly drawn) [Compound 66, N-(3,4-difluorobenzyl)-5-((9aS)-2-(2-(2,2-dimethyltetrahydro-2H-pyran-4-yl)ethyl)-3-(5-methyl-1,3,4-oxadiazol-2-yl)-5-oxo-7,8,9,9a-tetrahydro-5H-pyrido[2,3-a]pyrrolizin-4-yl)thiophene-2-carboxamide] | 975 |
| Cc1nnc(-c2c(CC3(c4ccc(F)cc4)CC3)nc3c(c2-c2ccc(C(=O)NCc4ccc(F)c(F)c4)s2)C(=O)N2CCC[C@@H]32)o1 [Compound 49, (S)—N-(3,4-difluorobenzyl)-5-(2-((1-(4-fluorophenyl)cyclopropyl)methyl)-3-(5-methyl-1,3,4-oxadiazol-2-yl)-5-oxo-7,8,9,9a-tetrahydro-5H-pyrido[2,3-a]pyrrolizin-4-yl)thiophene-2-carboxamide] | 382 |
| Cc1nnc(-c2c(CCc3ccc(F)cc3)nc3c(c2-c2ccc(C(=O)N[C@@H]4CCc5ncccc54)s2)C(=O)N2CCC[C@@H]32)o1 [Compound 28] | 315 |
| Cc1nnc(-c2c(CCc3ccc(F)cc3)nc3c(c2-c2ccc(C(=O)NC4CC(O)c5ccccc54)s2)C(=O)N2CCC[C@@H]32)o1 (stereo partly drawn) [Compound 11, 5-((S)-2-(4-fluorophenethyl)-3-(5-methyl-1,3,4-oxadiazol-2-yl)-5-oxo-7,8,9,9a-tetrahydro-5H-pyrido[2,3-a]pyrrolizin-4-yl)-N-(3-hydroxy-2,3-dihydro-1H-inden-1-yl)thiophene-2-carboxamide] | 48.1 |
| Cc1nnc(-c2c(CCc3ccc(F)cc3)nc3c(c2-c2cc4ccnc(NCc5ccc(F)c(F)c5)c4s2)C(=O)N2CCCC32O)o1 (stereo not drawn) [Compound 53] | 13.1 |
| CO[C@@H]1C[C@@H](NC(=O)c2ccc(-c3c4c(nc(CCc5ccc(F)cc5)c3-c3nnc(C)o3)[C@@H]3CCCN3C4=O)s2)c2ccccc21 (stereo in doubt) [Compound 48] | 321 |
| Cc1nnc(-c2c(CCOC(C)C)nc3c(c2-c2ccc(C(=O)NCc4ccc(F)c(F)c4)s2)C(=O)N2CCC[C@@H]32)o1 [Compound 35, (S)—N-(3,4-difluorobenzyl)-5-(2-(2-isopropoxyethyl)-3-(5-methyl-1,3,4-oxadiazol-2-yl)-5-oxo-7,8,9,9a-tetrahydro-5H-pyrido[2,3-a]pyrrolizin-4-yl)thiophene-2-carboxamide] | > 100 |
| Cc1nnc(-c2c(CCC3CCOCC3)nc3c(c2-c2cc4ccnc(N[C@@H]5CCc6cc(F)ccc65)c4s2)C(=O)N2CCC[C@@H]32)o1 [Compound 71] | 27.8 |
| Cc1ccc(CCc2nc3c(c(-c4ccc(C(=O)NCc5ccc(F)c(F)c5)s4)c2-c2nnc(C)o2)C(=O)N2CCC[C@@H]32)nc1 [Compound 6, (S)—N-(3,4-difluorobenzyl)-5-(3-(5-methyl-1,3,4-oxadiazol-2-yl)-2-(2-(5-methylpyridin-2-yl)ethyl)-5-oxo-7,8,9,9a-tetrahydro-5H-pyrido[2,3-a]pyrrolizin-4-yl)thiophene-2-carboxamide] | 674 |

More lines, in order of falling EC50, values ahead:

| EC50 [nM] | Structure (SMILES) |
| --- | --- |
| 2200 | COc1cccc(CNc2nccc3cc(-c4c5c(nc(CCC6CCOCC6)c4-c4nnc(C)o4)[C@@H]4CCCN4C5=O)sc23)c1 [Compound 73] |
| 1810 | CCc1nc2c(c(-c3ccc(C(=O)N[C@@H]4CCc5cc(F)ccc54)s3)c1-c1nnc(C)o1)C(=O)N1CCC[C@@H]21 [Compound 82, N—[(R)-5-fluoro-1-indanyl]-5-((2S)-11-ethyl-10-(5-methyl-1,3,4-oxadiazol-2-yl)-7-oxo-6,12-diazatricyclo[6.4.0.0^2,6]dodeca-1(8),9,11-trien-9-yl}-2-thenamide] |
| 551 | Cc1nnc(-c2c(CC(O)c3ccc(F)cc3)nc3c(c2-c2ccc(C(=O)N[C@@H]4CCc5ccccc54)s2)C(=O)N2CCC[C@@H]32)o1 (stereo partly drawn) [Compound 51, N-[(1R)-2,3-dihydro-1H-indenyl]-5-[(9aS)-2-[2-(4-fluorophenyl)-2-hydroxyethyl]-3-(5-methyl-1,3,4-oxadiazol-2-yl)-5-oxo-7,8,9,9a-tetrahydro-5H-pyrido[2,3-a]pyrrolizin-4-yl]thiophene-2-carboxamide] |
| 512 | Cc1nnc(-c2c(COC3CCCCC3)nc3c(c2-c2ccc(C(=O)NCc4ccc(F)c(F)c4)s2)C(=O)N2CCC[C@@H]32)o1 [Compound 25] |
| 113 | Cc1nnc(-c2c(CCc3ccc(F)cc3)nc3c(c2-c2ccc(C(=O)NCc4cncc(F)c4)s2)C(=O)N2CCC[C@@H]32)o1 [Compound 12, (S)-5-(2-(4-fluorophenethyl)-3-(5-methyl-1,3,4-oxadiazol-2-yl)-5-oxo-7,8,9,9a-tetrahydro-5H-pyrido[2,3-a]pyrrolizin-4-yl)-N-((5-fluoropyridin-3-yl)methyl)thiophene-2-carboxamide] |
| 81.4 | Cc1nnc(-c2c(CCC3CCOCC3)nc3c(c2-c2cc4ccnc(N[C@@H]5CCc6ccc(F)cc65)c4s2)C(=O)N2CCC[C@@H]32)o1 [Compound 72] |
| 66.7 | Cc1nnc(-c2c(CCc3ccc(F)cc3)nc3c(c2-c2ccc(C(=O)N[C@@H]4COc5ccccc54)s2)C(=O)N2CCC[C@@H]32)o1 [Compound 10, N—((S)-2,3-dihydrobenzofuran-3-yl)-5-((S)-2-(4-fluorophenethyl)-3-(5-methyl-1,3,4-oxadiazol-2-yl)-5-oxo-7,8,9,9a-tetrahydro-5H-pyrido[2,3-a]pyrrolizin-4-yl)thiophene-2-carboxamide] |
| 59 | COc1cccc2c1CC[C@H]2Nc1nccc2cc(-c3c4c(nc(CCC5CCOCC5)c3-c3nnc(C)o3)[C@@H]3CCCN3C4=O)sc12 [Compound 83, (2S,6R)-9-(7-[(R)-4-methoxy-1-indanylamino]-1-thia-6-aza-2-indenyl}-10-(5-methyl-1,3,4-oxadiazol-2-yl)-11-[2-(tetrahydro-2H-pyran-4-yl)ethyl]-6,12-diazatricyclo[6.4.0.0^2,6,]dodeca-1(8), 9,11-trien-7-one] |
| 52.5 | Cc1ncoc1-c1c(CCc2ccc(F)cc2)nc2c(c1-c1ccc(C(=O)NCc3ccc(F)c(F)c3)s1)S(=O)(=O)N1CCC[C@@H]21 [Compound 33, (S)—N-(3,4-difluorobenzyl)-5-(2-(4-fluorophenethyl)-3-(4-methyloxazol-5-yl)-5,5-dioxido-7,8,9,9a-tetrahydropyrrolo[1′,2′:2,3]isothiazolo[4,5-b]pyridin-4-yl)thiophene-2-carboxamide] |
| 22.8 | Cc1cnc(-c2c(CCc3ccc(F)cc3)nc3c(c2-c2cc4ccnc(NCc5ccc(F)c(F)c5)c4s2)C(=O)N2CCC[C@@H]32)o1 [Compound 41] |
| 20.2 | Cc1nnc(-c2c(CCc3ccc(F)cc3)nc3c(c2-c2cc4ccnc(NCc5ccc(F)c(F)c5)c4s2)C(=O)N2CCC[C@@H]32)o1 [Compound 40, (S)-4-(7-((3,4-difluorobenzyl)amino)thieno[2,3-c]pyridin-2-yl)-2-(4-fluorophenethyl)-3-(5-methyl-1,3,4-oxadiazol-2-yl)-7,8,9,9a-tetrahydro-5H-pyrido[2,3-a]pyrrolizin-5-one] |
| 12.6 | Cc1cnc(-c2c(CCc3ccc(F)cc3)nc3c(c2-c2ccc(C(=O)NCc4ccc(F)c(F)c4)s2)C(=O)N2CCC[C@@H]32)o1 [Compound 14, N-(3,4-difluorophenyl)methyl-5-{(2S)-11-[2-(p-fluorophenyl)ethyl]-10-(5-methyl-1,3-oxazol-2-yl)-7-oxo-6,12-diazatricyclo[6.4.0.0^2,6]dodeca-1(8),9,11-trien-9-yl)-2-thenamide] |
